Experimental data taken from US20120315290A1, “INHIBITORS OF LL-37 MEDIATED IMMUNE REACTIVITY TO SELF NUCLEIC ACIDS” (BOARD OF REGENTS, THE UNIVERSITY OF TEXAS SYSTEM, priority 2006, published 2012).

Test system: murine pDC
Experiment: Murine pDC stimulation with peptide/DNA complexes (IFN-a ELISA)
Assay type: cell-based, mouse
Details: complexed with DNA
Protocol: Murine pDC were generated from Flt3 ligand supplemented BM cultures and isolated by sorting of CD11c+CD11b-B220+ cells, as previously described. 50,000 murine pDC in […] of complete medium were stimulated with human LL-37 ([…]), mouse CRAMP ([…]), DNA alone, or DNA plus LL-37 or DNA plus CRAMP. After overnight culture supernatants were collected and tested for IFN-a by ELISA.
Murine pDC respond to LL-37-DNA complexes. To determine whether mouse pDCs can respond to LL-37/DNA complexes, we purified mouse pDCs from Flt3L-supplemented BM cultures according to their CD11c+CD11b-B220+ phenotype, and stimulated them with DNA complexed with LL-37 or CRAMP (the murine LL-37 homologue). […] However, compared to LL-37, approximately 3 times more CRAMP was required to elicit the same amount of type I IFNs (FIG. 27).

CRAMP
Amount required to elicit the same amount of type I IFNs, compared to LL-37: approximately 3 times
